Source: PubChem BioAssay AID330 (DTP/NCI, 2004)
Several values for one entry are separate records, joined by “and”; a condition that tells them apart may be missing. Equal entries are not always repeated. Toxic doses and inconclusive results are not listed.

Tested on: P388 leukemia ip, CD2F1 mice, survival T/C
Test: NCI In Vivo Anticancer Drug Screen. Data for tumor model P388 Leukemia (intraperitoneal) in CD2F1 (CDF1) mice
Details: endpoint: median survival time, higher = longer survival
Outline: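 Mice carrying the transplanted tumor received test compound or vehicle. Survival was recorded in each group, and the value is the treated-group measurement divided by that of the vehicle-treated control group.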

[1] = dose: 60.0 mg/kg/injection, schedule: Q01DX005 (ip), vehicle: saline with Tween-80
[2] = dose: 120.0 mg/kg/injection, schedule: Q01DX005 (ip), vehicle: saline with Tween-80
[3] = dose: 240.0 mg/kg/injection, schedule: Q01DX005 (ip), vehicle: saline with Tween-80
[4] = dose: 50.0 mg/kg/injection, schedule: Q01DX005 (ip), vehicle: saline with Tween-80
[5] = dose: 100.0 mg/kg/injection, schedule: Q01DX005 (ip), vehicle: saline with Tween-80
[6] = dose: 200.0 mg/kg/injection, schedule: Q01DX005 (ip), vehicle: saline with Tween-80
[7] = dose: 50.0 mg/kg/injection, schedule: Q01DX009 (ip), vehicle: saline
[8] = dose: 100.0 mg/kg/injection, schedule: Q01DX009 (ip), vehicle: saline
[9] = dose: 6.25 mg/kg/injection, schedule: Q01DX009 (ip), vehicle: saline
[10] = dose: 60.0 mg/kg/injection, schedule: Q01DX005 (ip), vehicle: Klucel (hydroxypropylcellulose) (HPC)
[11] = dose: 120.0 mg/kg/injection, schedule: Q01DX005 (ip), vehicle: Klucel (hydroxypropylcellulose) (HPC)
[12] = dose: 50.0 mg/kg/injection, schedule: Q01DX009 (ip), vehicle: Klucel (hydroxypropylcellulose) (HPC)
[13] = dose: 100.0 mg/kg/injection, schedule: Q01DX009 (ip), vehicle: Klucel (hydroxypropylcellulose) (HPC)
[14] = dose: 60.0 mg/kg/injection, schedule: Q01DX005 (ip), vehicle: saline
[15] = dose: 120.0 mg/kg/injection, schedule: Q01DX005 (ip), vehicle: saline

## CN(C=O)COC(=O)c1ccccc1
dose: 31.25 mg/kg/injection, schedule: Q01DX005 (ip), vehicle: distilled water + Tween-80
  T/C: 104 % of control
dose: 62.5 mg/kg/injection, schedule: Q01DX005 (ip), vehicle: distilled water + Tween-80
  T/C: 96 % of control
dose: 125.0 mg/kg/injection, schedule: Q01DX005 (ip), vehicle: distilled water + Tween-80
  T/C: 93 % of control
dose: 250.0 mg/kg/injection, schedule: Q01DX005 (ip), vehicle: distilled water + Tween-80
  T/C: 104 % of control

## Nc1ccc(N(CCCl)CCN(CCCl)c2ccc(N)cc2)cc1
dose: 0.8 mg/kg/injection, schedule: Q01DX009 (ip), vehicle: saline sonified
  T/C: 176 % of control
dose: 1.2 mg/kg/injection, schedule: Q01DX009 (ip), vehicle: saline sonified
  T/C: 209 % of control
dose: 1.25 mg/kg/injection, schedule: Q01DX009 (ip), vehicle: saline
  T/C: 177 % of control
dose: 2.5 mg/kg/injection, schedule: Q01DX009 (ip), vehicle: saline
  T/C: 122 % of control
dose: 5.0 mg/kg/injection, schedule: Q01DX009 (ip), vehicle: saline
  T/C: 90 % of control
dose: 5.0 mg/kg/injection, schedule: Q04DX003 (ip), vehicle: saline with Tween-80
  T/C: 118 % of control

## CC1(C)CC2(CC(C)(C)N1O)NC(=O)OC2=O
[1]
  T/C: 97 % of control
[2]
  T/C: 97 % of control
[3]
  T/C: 106 % of control

## CC(=O)CC(=O)Cc1oc2c(C(C)=O)c(O)c(C)c(O)c2c1C
dose: 25.0 mg/kg/injection, schedule: Q01DX009 (ip), vehicle: saline with Tween-80
  T/C: 90 % of control
dose: 50.0 mg/kg/injection, schedule: Q01DX009 (ip), vehicle: saline with Tween-80
  T/C: 90 % of control
dose: 100.0 mg/kg/injection, schedule: Q01DX009 (ip), vehicle: saline with Tween-80
  T/C: 88 % of control
dose: 200.0 mg/kg/injection, schedule: Q01DX009 (ip), vehicle: saline with Tween-80
  T/C: 90 % of control

## COC(=O)c1nn(C)c(=O)[nH]c1=O
[4]
  T/C: 103 % of control
[5]
  T/C: 98 % of control
[6]
  T/C: 100 % of control

## Cn1cnc([N+](=O)[O-])c1C(=O)O
[7]
  T/C: 107 % of control
[8]
  T/C: 89 % of control

## C/C(CCl)=N/NC1=NC(C)(CCC2(C)N=C(N/N=C(/C)CCl)SP2(=O)NC23CC4CC(CC(C4)C2)C3)P(=O)(NC23CC4CC(CC(C4)C2)C3)S1 (configuration not stated)
[1]
  T/C: 105 % of control
[2]
  T/C: 100 % of control
[3]
  T/C: 91 % of control

## Cc1ccc(N=c2oc(-c3ccccc3)cs2)cc1
dose: 100.0 mg/kg/injection, schedule: Q01DX001 (ip), vehicle: saline with Tween-80
  T/C: 90 % of control
dose: 200.0 mg/kg/injection, schedule: Q01DX001 (ip), vehicle: saline with Tween-80
  T/C: 89 % of control
dose: 400.0 mg/kg/injection, schedule: Q01DX001 (ip), vehicle: saline with Tween-80
  T/C: 88 % of control

## Cc1cc(N)cc(N)c1O
dose: 1.56 mg/kg/injection, schedule: Q01DX009 (ip), vehicle: saline
  T/C: 97 % of control
dose: 3.12 mg/kg/injection, schedule: Q01DX009 (ip), vehicle: saline
  T/C: 95 % of control
[9]
  T/C: 97 % of control

## COc1ccc2nccc3c2c1NC(Cl)=C3
[10]
  T/C: 97 % of control
[11]
  T/C: 103 % of control
dose: 240.0 mg/kg/injection, schedule: Q01DX005 (ip), vehicle: Klucel (hydroxypropylcellulose) (HPC)
  T/C: 97 % of control

## CCCCC(O)(c1ccc2nc(NC(=O)OC)[nH]c2c1)c1cccs1 (configuration not stated)
dose: 25.0 mg/kg/injection, schedule: Q01DX005 (ip), vehicle: other
  T/C: 110 % of control
dose: 50.0 mg/kg/injection, schedule: Q01DX005 (ip), vehicle: other
  T/C: 107 % of control
dose: 100.0 mg/kg/injection, schedule: Q01DX005 (ip), vehicle: other
  T/C: 110 % of control
dose: 200.0 mg/kg/injection, schedule: Q01DX005 (ip), vehicle: other
  T/C: 104 % of control

## O=C(O)c1ccc(O)c(S)c1
dose: 100.0 mg/kg/injection, schedule: Q04DX003 (ip), vehicle: alcohol
  T/C: 106 % of control
dose: 200.0 mg/kg/injection, schedule: Q04DX003 (ip), vehicle: alcohol
  T/C: 101 % of control
dose: 400.0 mg/kg/injection, schedule: Q04DX003 (ip), vehicle: alcohol
  T/C: 105 % of control

## CCCN(CCC)C(=O)CN(C=O)c1ncc([N+](=O)[O-])s1
dose: 25.0 mg/kg/injection, schedule: Q01DX001 (ip), vehicle: saline
  T/C: 104 % of control
dose: 50.0 mg/kg/injection, schedule: Q01DX001 (ip), vehicle: saline
  T/C: 108 % of control
dose: 100.0 mg/kg/injection, schedule: Q01DX001 (ip), vehicle: saline
  T/C: 107 % of control

## CC(C)(C)OC(=O)NC(CCC(=O)O)C(=O)O (configuration not stated)
[4]
  T/C: 100 % of control
[5]
  T/C: 97 % of control
[6]
  T/C: 103 % of control

## O=S1(=O)CCN(Cc2ccco2)CC1
[12]
  T/C: 100 % of control
[13]
  T/C: 99 % of control

## CCCCCCNC(=S)Nc1ccc2cc(C)ccc2n1
[12]
  T/C: 91 % of control
[13]
  T/C: 91 % of control
dose: 200.0 mg/kg/injection, schedule: Q01DX009 (ip), vehicle: Klucel (hydroxypropylcellulose) (HPC)
  T/C: 94 % of control

## C(=C\c1ccccn1)/c1ccc(/C=C/c2ccccn2)cc1
[1]
  T/C: 98 % of control
[2]
  T/C: 103 % of control
[3]
  T/C: 97 % of control

## C/C(=N\NC(N)=Nc1ccc(Cl)cc1)c1ccc2c(c1)Cc1cc(/C(C)=N/NC(N)=Nc3ccc(Cl)cc3)ccc1-2
dose: 25.0 mg/kg/injection, schedule: Q04DX002 (ip), vehicle: saline with Tween-80
  T/C: 87 % of control
dose: 50.0 mg/kg/injection, schedule: Q04DX002 (ip), vehicle: saline with Tween-80
  T/C: 90 % of control
dose: 100.0 mg/kg/injection, schedule: Q04DX002 (ip), vehicle: saline with Tween-80
  T/C: 97 % of control
dose: 200.0 mg/kg/injection, schedule: Q04DX002 (ip), vehicle: saline with Tween-80
  T/C: 101 % of control
dose: 400.0 mg/kg/injection, schedule: Q04DX002 (ip), vehicle: saline with Tween-80
  T/C: 100 % of control

## Nc1nc(-c2ccc(Cl)cc2)cc(-c2cc(-c3ccc(Cl)cc3)nc(N)n2)n1
[14]
  T/C: 110 % of control
[15]
  T/C: 102 % of control
dose: 240.0 mg/kg/injection, schedule: Q01DX005 (ip), vehicle: saline
  T/C: 100 % of control

## Cc1ccc2c(c1)S(=O)(=O)c1ccc3ccccc3c1N2
[4]
  T/C: 101 % of control
[5]
  T/C: 99 % of control
[6]
  T/C: 100 % of control

## C1CC[N+]2(CC1)CCCCC2
[9]
  T/C: 100 % of control
dose: 12.5 mg/kg/injection, schedule: Q01DX009 (ip), vehicle: saline
  T/C: 100 % of control
dose: 25.0 mg/kg/injection, schedule: Q01DX009 (ip), vehicle: saline
  T/C: 108 % of control
[7]
  T/C: 98 % of control

## OCN(CO)c1nc(CCC(Br)(Br)Br)nc(N(CO)CO)n1
dose: 12.5 mg/kg/injection, schedule: Q01DX009 (ip), vehicle: distilled water + Tween-80
  T/C: 104 % of control
dose: 25.0 mg/kg/injection, schedule: Q01DX009 (ip), vehicle: distilled water + Tween-80
  T/C: 98 % of control
dose: 50.0 mg/kg/injection, schedule: Q01DX009 (ip), vehicle: distilled water + Tween-80
  T/C: 98 % of control
dose: 100.0 mg/kg/injection, schedule: Q01DX009 (ip), vehicle: distilled water + Tween-80
  T/C: 89 % of control
dose: 200.0 mg/kg/injection, schedule: Q01DX009 (ip), vehicle: distilled water + Tween-80
  T/C: 98 % of control

## Cc1cc2nc(N(C)C)cc(N(C)C)c2cc1C
dose: 12.5 mg/kg/injection, schedule: Q01DX009 (ip), vehicle: Klucel (hydroxypropylcellulose) (HPC)
  T/C: 115 % of control
dose: 25.0 mg/kg/injection, schedule: Q01DX009 (ip), vehicle: Klucel (hydroxypropylcellulose) (HPC)
  T/C: 109 % of control
[12]
  T/C: 100 % of control and 105 % of control

## c1cc[n+](CCC[n+]2ccccc2)cc1
[7]
  T/C: 98 % of control
[8]
  T/C: 97 % of control
dose: 200.0 mg/kg/injection, schedule: Q01DX009 (ip), vehicle: saline
  T/C: 100 % of control

## C=CC(=C)C1(O)c2ccccc2C(=O)N1C (configuration not stated)
[10]
  T/C: 106 % of control
[11]
  T/C: 109 % of control

## CC(CN(C)C)C(=O)/C=C/c1ccc(F)c(F)c1 (configuration not stated)
[14]
  T/C: 100 % of control and 103 % of control
[15]
  T/C: 116 % of control and 124 % of control

## O=C(O)c1cc(Br)ccc1OCc1cccc(Cl)c1
dose: 25.0 mg/kg/injection, schedule: Q04DX003 (ip), vehicle: saline with Tween-80
  T/C: 101 % of control
dose: 50.0 mg/kg/injection, schedule: Q04DX003 (ip), vehicle: saline with Tween-80
  T/C: 98 % of control
